Laboratory results published in patent US5162354A, “3-halo-5-halomethyl-2-oxazolidinones and their use as microbicides” (Buckman Laboratories International, Inc., priority 1991, dated 1992).
In brackets after ≈: the same amount, converted by molar mass. Like-named read-outs stand apart in the source and are kept apart here.

Experiments:
Assay type in all cases: cell-based
Streptococcus faecalis [1] = assay: AOAC Germicidal and Detergent Sanitizing Action of Disinfectants (Streptococcus faecalis)
Experimental: (§1) This test is conducted according to AOAC methods described in AOAC Official Methods of Analysis (1984) p 70. This test is suitable for chemicals that can be permitted for use in sanitizing precleaned non-porous food contact surfaces. This test also determines the effectiveness of compounds tested in hard water. Most of the detergents/sanitizers available in the market become ineffective in the presence of hard water, i.e. water containing calcium and/or magnesium ions. A water hardness value of 400 ppm was chosen because it is considered to be the highest hardness value for tap water in the United States.

Staphylococcus aureus = assay: Efficacy of Sanitizers Recommended for Non-Food Contact Surfaces, ASTM E 1153-87 (Staphylococcus aureus); details: 99.9% kill, read-out: Minimum inhibitory concentration required to inhibit microorganisms
Experimental: (§2) This test method is used to evaluate the antimicrobial efficacy of sanitizers on precleaned non-porous, non-food contact surfaces. This test was performed according to the test procedure E 1153-87 of ASTM. […] For most of the sanitizers, effectiveness is hampered (or minimum inhibitory concentrations go up) in the presence of an organic load. Therefore, the compounds of the present invention are tested both in the presence and absence of 5% organic load (Bovine albumin fraction V, Sigma Chemical Company).

Pseudomonas aeruginosa = assay: AOAC Disinfectant Swimming Pool Assay (Pseudomonas aeruginosa); details: 10 min, contact time 10 minutes, read-out: MIC (Minimum inhibitory concentration required to inhibit microorganisms)
Experimental: (§3) This example was based on the procedure described in AOAC (Association of Official Analytical Chemists) Official Methods of Analysis (1986) pp 75-77. The results obtained by this method are suitable for presumptive evidence of acceptability of products for disinfecting swimming pool water. The results obtained for Compound 1 in a contact time of 10 minutes are noted in Table IV.

Streptococcus faecalis [2] = assay: AOAC Disinfectant Swimming Pool Assay (Streptococcus faecalis); details: Enterococcus faecalis, 10 min, contact time 10 minutes, read-out: MIC (Minimum inhibitory concentration required to inhibit microorganisms)
Experimental: as §3

Escherichia coli [3] = assay: Efficacy of Sanitizers Recommended for Non-Food Contact Surfaces, ASTM E 1153-87 (Escherichia coli); details: 99.9% kill, read-out: Minimum inhibitory concentration required to inhibit microorganisms
Experimental: as §2

Salmonella choleraesuis = assay: AOAC Disinfectant Swimming Pool Assay (Salmonella choleraesuis); details: Salmonella enterica, 10 min, contact time 10 minutes, read-out: MIC (Minimum inhibitory concentration required to inhibit microorganisms)
Experimental: as §3

Klebsiella pneumonia = assay: AOAC Disinfectant Swimming Pool Assay (Klebsiella pneumonia); details: Klebsiella pneumoniae, 10 min, read-out: MIC (Minimum inhibitory concentration required to inhibit microorganisms)
Experimental: as §3

Escherichia coli [4] = assay: AOAC Disinfectant Swimming Pool Assay (Escherichia coli); details: 10 min, contact time 10 minutes, read-out: MIC (Minimum inhibitory concentration required to inhibit microorganisms)
Experimental: as §3

Chlorococcum hypnosporum = assay: Growth inhibiting activity against algae in Difco Algae Broth (Chlorococcum hypnosporum); details: 672 h, pH 7, read-out: Minimum inhibitory concentration against algae
Experimental: The growth inhibiting activity of the method of the invention against the three algae Chlorella pyrenoidosa, Chlorococcum hypnosporum and Phormidium inundatum was evaluated in Difco Algae Broth, the content of which was as follows:
Forty-gram portions of the algae medium were added to 250 mL Pyrex Erlenmeyer flasks fitted with loose metal caps and then sterilized. Each of the following substances was then added to the flasks in the order listed:
1. Sterile algae medium as required to bring the total weight of the contents of each flask to 50 grams, after allowing for all subsequent additions specified below.
2. A solution of one of compounds 1-4 or of a control agent to be evaluated in each test, to give the concentration desired in parts per million by weight.
3. Chlorella pyrenoidosa, Chlorococcum hypnosporum and Phormidium inundatum in amounts sufficient to give excellent growth in the controls after 14 days. This was achieved by adding 1 milliliter of a 14 day old culture having luxuriant growth. The Chlorella pyrenoidosa culture was obtained from American Type Culture Collection No. 7516; Chlorococcum hypnosporum, from the University of TX at Austin; and Phormidium inundatum, WI No. 1093, from the University of WA.
As a control experiment, WSCP was used as a positive control agent. WSCP is a known toxicant which kills C. pyrenoidosa at 2 ppm, C. hypnosporum at 2ppm, and P. inundatum at 10 ppm. Control experiments were also carried out where no toxicants were employed. In the algicidal tests, the growth of algae in the nutrient medium is lush green and can be seen with the naked eye. Because the minimum inhibitory concentrations of the compounds in this example are those which result in complete inhibition, evaluation of the test results is not subjective.
After the inoculum of the test algae was added, the flasks were incubated at a temperature of 28°±2° C. under fluorescent illumination of 250 foot-candle intensity (8 hours light, 16 hours darkness) for a period adequate for growth in the controls (those portions of medium which contained no toxicant). Observations of growth were made at 7-day intervals. Minimum inhibitory concentrations are those that prevented complete growth after 28 days.

Escherichia coli [5] = assay: AOAC Germicidal and Detergent Sanitizing Action of Disinfectants (Escherichia coli)
Experimental: as §1

[6] = Hard Water (400 ppm calcium carbonate)
[7] = With 5% organic load (bovine albumin)

O=C1OC(CCl)CN1Br (centres unmarked) [Compound 1, 3-Bromo-5-chloromethyl-2-oxazolidinone]
MIC (Streptococcus faecalis [1]; Enterococcus faecalis, Soft Water, read-out: Minimum inhibitory concentration required to inhibit microorganisms): 80 µg/mL (≈ 373 µM)
Minimum inhibitory concentration required to inhibit microorganisms (Streptococcus faecalis [1]; [6]): 80 parts per million (w/v)
MIC (Staphylococcus aureus; [7]): 160 µg/mL (≈ 746 µM)
MIC (Staphylococcus aureus; Without organic load): 80 µg/mL (≈ 373 µM)
MIC (Pseudomonas aeruginosa): 100 µg/mL (≈ 466 µM)
MIC (Streptococcus faecalis [2]): 80 µg/mL (≈ 373 µM)
MIC (Escherichia coli [3]; [7]): 160 µg/mL (≈ 746 µM)
MIC (Escherichia coli [3]; Without organic load): 80 µg/mL (≈ 373 µM)
MIC (Salmonella choleraesuis): 80 µg/mL (≈ 373 µM)
MIC (Klebsiella pneumonia): 100 µg/mL (≈ 466 µM)
MIC (Escherichia coli [4]): 80 µg/mL (≈ 373 µM)
MIC (Chlorococcum hypnosporum): 10 µg/mL (≈ 46.6 µM)
Minimum inhibitory concentration required to inhibit microorganisms (Escherichia coli [5]; [6]): 80 parts per million (w/v)
MIC (Escherichia coli [5]; Soft Water, read-out: Minimum inhibitory concentration required to inhibit microorganisms): 80 µg/mL (≈ 373 µM)
